ChEMBL document CHEMBL4665708, “Generation of Stilbene Antimicrobials against Multiresistant Strains of Staphylococcus aureus through Biotransformation by the Enzymatic Secretome of Botrytis cinerea” (J Nat Prod, 2020)
≈ marks a conversion by molar mass, not a printed value. Calls of active or inactive are those of the source. The rule behind the calls is not given here.

What was measured:
Staphylococcus aureus [1] = assay: Antimicrobial activity against methicillin-resistant Staphylococcus aureus ATCC 33591 after 24 hrs by broth microdilution method; assay type: functional
Pseudomonas aeruginosa = assay: Antimicrobial activity against Pseudomonas aeruginosa ATCC 27853 at 256 ug/ml after 24 hrs by broth microdilution assay; assay type: functional, organism-based; conditions: dose 256.0 µg/ml
MCF-10A = assay: Cytotoxicity against human MCF-10A cells after 3 days by microplate reader analysis; assay type: cell-based; conditions: 72 h
HepG2 = assay: Cytotoxicity against human HepG2 cells after 3 days by microplate reader analysis; assay type: cell-based; conditions: HepG2, 72 h
[2] = Selectivity ratio of IC50 for human MCF-10A cells to MIC for methicillin-resistant Staphylococcus aureus ATCC 33591; assay type: toxicity
Staphylococcus aureus [3] = assay: Antimicrobial activity against vancomycin-resistant Staphylococcus aureus 510 after 24 hrs by broth microdilution method; assay type: functional
[4] = Selectivity ratio of IC50 for human MCF-10A cells to MIC for vancomyicin-resistant Staphylococcus aureus 510; assay type: toxicity

Structure (SMILES)	MIC (Staphylococcus aureus [1]) [µM]	Activity (Pseudomonas aeruginosa)	IC50 (MCF-10A) [µM]	IC50 (HepG2) [µM]	selectivity ratio [2]	MIC (Staphylococcus aureus [3]) [µM]	selectivity ratio [4]
COc1cc(/C=C/c2ccc(O)cc2)cc(OC)c1 [PTEROSTILBENE]	31 (≈ 7.95 µg/mL)	inactive	–	–	–	–	–
Oc1ccc([C@H]2Oc3ccc(/C=C/c4cc(O)cc(O)c4)cc3[C@@H]2c2cc(O)cc(O)c2)cc1 (relative stereo)	35 (≈ 15.9 µg/mL)	inactive	48	48	1.4	–	–
COc1cc(OC)c2c(c1)[C@@H]([C@@H](OC)c1ccc(O)cc1)[C@H](c1cc(O)cc(O)c1)[C@H]2c1ccc(O)cc1	> 249	inactive	–	–	–	–	–
Oc1ccc([C@@H]2c3c(O)cc(O)cc3[C@H]3[C@H](c4ccc(O)cc4)c4c(O)cc(O)cc4[C@@H]23)cc1 [PALLIDOL]	> 282	inactive	–	–	–	–	–
COc1cc(OC)cc([C@@H]2[C@@H](c3ccc(O)cc3)c3c(OC)cc(OC)cc3[C@H]2[C@@H](OC)c2ccc(O)cc2)c1	15 (≈ 8.14 µg/mL)	inactive	17	15	1.1	–	–
COc1cc(OC)cc([C@@H]2[C@@H](c3ccc(O)cc3)c3c(OC)cc(OC)cc3[C@H]2[C@H](O)c2ccc(O)cc2)c1	121 (≈ 64 µg/mL)	inactive	–	–	–	–	–
COc1cc(OC)c2c(c1)[C@H]1[C@H](c3ccc(O)cc3)c3c(OC)cc(OC)cc3[C@H]1[C@@H]2c1ccc(O)cc1	31 (≈ 15.8 µg/mL)	inactive	24	22	0.7	–	–
COc1cc(/C=C/c2ccc3c(c2)[C@H](c2cc(O)cc(O)c2)[C@@H](c2ccc(O)cc2)O3)cc(OC)c1	22 (≈ 10.6 µg/mL)	inactive	66	27	32	2 (≈ 0.965 µg/mL)	32
COc1cc(OC)cc([C@H]2c3cc(/C=C/c4cc(O)cc(O)c4)ccc3O[C@@H]2c2ccc(O)cc2)c1 (relative stereo)	4 (≈ 1.93 µg/mL)	inactive	29	27	7.2	4 (≈ 1.93 µg/mL)	7.2
COc1cc(OC)cc([C@@H]2[C@@H](c3ccc(O)cc3)c3c(O)cc(O)cc3[C@H]2C(O)c2ccc(O)cc2)c1 (some centres undefined)	> 256	inactive	–	–	–	–	–
COc1cc(OC)cc(C(Oc2ccc(/C=C/c3cc(O)cc(O)c3)cc2)C(OC)c2ccc(O)cc2)c1 (centres undefined)	62 (≈ 31.9 µg/mL)	inactive	23	29	0.4	–	–
COc1cc(/C=C/c2ccc(OC(c3cc(OC)cc(OC)c3)C(O)c3ccc(O)cc3)cc2)cc(OC)c1 (centres undefined)	> 242	inactive	–	–	–	–	–
COc1cc(OC)cc(C(C(OC)OC)C(c2cc(OC)cc(OC)c2)C(c2ccc(O)cc2)c2ccc(O)cc2)c1 (centres undefined)	14 (≈ 8.05 µg/mL)	inactive	19	19	1.4	–	–
COc1cc(OC)cc([C@@H]2[C@@H](c3ccc(O)cc3)c3c(O)cc(O)cc3[C@H]2[C@H](OC)c2ccc(O)cc2)c1	> 249	inactive	–	–	–	–	–
Oc1ccc(/C=C/c2cc(O)cc(O)c2)cc1 [RESVERATROL]	> 561	inactive	–	–	–	–	–
COc1cc(OC)cc([C@@H]2[C@@H](c3cc(OC)cc(OC)c3)[C@H](c3ccc(O)cc3)O[C@@H]2c2ccc(O)cc2)c1	121 (≈ 64 µg/mL)	inactive	> 95	> 95	–	–	–
COc1cc(/C=C/c2ccc3c(c2)[C@H](c2cc(OC)cc(OC)c2)[C@@H](c2ccc(O)cc2)O3)cc(OC)c1	> 251	inactive	25	29	< 0.1	–	–
COc1cc(OC)cc([C@@H](C(OC)OC)[C@@H](c2cc(O)cc(O)c2)C(c2ccc(O)cc2)c2ccc(O)cc2)c1	> 234	inactive	–	–	–	–	–
COc1cc(OC)cc([C@@H]2[C@@H](c3ccc(O)cc3)c3c(OC)cc(OC)cc3[C@H]2[C@@H](O)c2ccc(O)cc2)c1	121 (≈ 64 µg/mL)	inactive	–	–	–	–	–
COC(c1ccc(O)cc1)[C@@H]1c2cc(O)cc(O)c2[C@H](c2ccc(O)cc2)[C@H]1c1cc(O)cc(O)c1 (some centres undefined)	> 263	inactive	–	–	–	–	–
COc1cc(OC)cc([C@@H]2[C@@H](c3ccc(O)cc3)c3c(O)cc(O)cc3[C@H]2[C@@H](OC)c2ccc(O)cc2)c1	> 249	inactive	–	–	–	–	–
COc1cc(/C=C/c2ccc(OC(c3cc(O)cc(O)c3)C(OC)c3ccc(O)cc3)cc2)cc(OC)c1 (racemic)	8 (≈ 4.12 µg/mL)	inactive	27	23	3.4	4 (≈ 2.06 µg/mL)	6.9
COc1cccc2c1C(=O)c1c(O)c3c(c(O)c1C2=O)C[C@@](O)(C(=O)CO)C[C@@H]3O[C@H]1C[C@H](N)[C@H](O)[C@H](C)O1 [DOXORUBICIN]	–	–	0.31	1.18	–	–	–
CN[C@H](CC(C)C)C(=O)N[C@H]1C(=O)N[C@@H](CC(N)=O)C(=O)N[C@H]2C(=O)N[C@H]3C(=O)N[C@H](C(=O)N[C@H](C(=O)O)c4cc(O)cc(O)c4-c4cc3ccc4O)[C@H](O)c3ccc(c(Cl)c3)Oc3cc2cc(c3O[C@@H]2O[C@H](CO)[C@@H](O)[C@H](O)[C@H]2O[C@H]2C[C@](C)(N)[C@H](O)[C@H](C)O2)Oc2ccc(cc2Cl)[C@H]1O [VANCOMYCIN]	0.69 (≈ 1 µg/mL)	inactive	–	–	–	22 (≈ 31.9 µg/mL)	–
